Active and inactive are the calls of the source. The rule behind the calls is not given here.
Test system: CCRIS mutagenicity, Ames/micronucleus/aberration tests
Experiment: CCRIS mutagenicity studies
[1] = Test System: AMES SALMONELLA TYPHIMURIUM, Strain/Indicator: TA98, Metabolic Activation: NONE, Method: PREINCUBATION
[2] = Test System: AMES SALMONELLA TYPHIMURIUM, Strain/Indicator: TA98, Metabolic Activation: RAT, LIVER, S-9, AROCLOR 1254, Method: STANDARD PLATE
[3] = Test System: AMES SALMONELLA TYPHIMURIUM, Strain/Indicator: TA100, Metabolic Activation: NONE, Method: PREINCUBATION
[4] = Test System: AMES SALMONELLA TYPHIMURIUM, Strain/Indicator: TA100, Metabolic Activation: RAT, LIVER, S-9, AROCLOR 1254, Method: PREINCUBATION
[5] = Test System: AMES SALMONELLA TYPHIMURIUM, Strain/Indicator: TA100, Metabolic Activation: S-9, Method: PREINCUBATION
[6] = Test System: AMES SALMONELLA TYPHIMURIUM, Strain/Indicator: TA1535, Metabolic Activation: NONE, Method: PREINCUBATION
[7] = Test System: AMES SALMONELLA TYPHIMURIUM, Strain/Indicator: TA1537, Metabolic Activation: NONE, Method: PREINCUBATION
[8] = Test System: AMES SALMONELLA TYPHIMURIUM, Strain/Indicator: TA98, Metabolic Activation: NONE, Method: STANDARD PLATE
[9] = Test System: AMES SALMONELLA TYPHIMURIUM, Strain/Indicator: TA100, Metabolic Activation: NONE, Method: STANDARD PLATE

Measured: mutagenic call

c1ccc2ncccc2c1
inactive: End Point: IN VITRO CHROMOSOMAL ABERRATIONS, Test System: CHL CELLS, Metabolic Activation: NONE inactive; negative | End Point: IN VIVO MICRONUCLEUS, Test System: PERIPHERAL BLOOD RETICULOCYTES, Species: RAT, Strain/Sex: FISHER 344 OR SD/MALE, Route: ORAL OR IP inactive; negative; significant increase at 150 mg/kg | [1] inactive; negative | [3] inactive; negative | [6] inactive; negative | Test System: AMES SALMONELLA TYPHIMURIUM, Strain/Indicator: TA1535, Metabolic Activation: RAT, LIVER, S-9, AROCLOR 1254, Method: STANDARD PLATE inactive; negative | [7] inactive; negative | Test System: E. COLI, Strain/Indicator: WP2UVRA, Metabolic Activation: NONE, Method: PREINCUBATION inactive; negative | Test System: UDS RODENT HEPATOCYTES, Strain/Indicator: THY INCORP (NON-S-PHASE), Metabolic Activation: IN VIVO, Method: AUTORADIOGRAPHY inactive; negative
active: End Point: IN VITRO CHROMOSOMAL ABERRATIONS, Test System: CHL CELLS, Metabolic Activation: RAT, LIVER, S-9, SODIUM PHENOBARBITAL AND 5,6-BENZOFLAVONE active; positive (structural changes) | End Point: IN VIVO MICRONUCLEUS, Test System: HEPATOCYTES, Species: RAT, Strain/Sex: FISHER 344 OR SD/MALE, Route: ORAL OR IP active; positive | End Point: In vitro chromosomal aberrations, Test System: Chinese hamster lung fibroblast cells (CHL/IU), Metabolic Activation: Rat, liver, S-9 active; positive (information derived from figure) | End Point: In vitro micronucleus, Test System: Chinese hamster lung fibroblast cells (CHL/IU), Metabolic Activation: Rat, Liver, S-9 active; positive, cytotoxic at 0.1 mg/ml (information derived from a figure) | End Point: In vitro micronucleus, Test System: Chinese hamster lung fibroblast cells (CHL/IU), Metabolic Activation: Rat, liver, S-9 active; positive (information derived from a figure) | End Point: In vivo micronucleus, Test System: Micronucleated hepatocytes, Species: Rat, Strain/Sex: F344/Male, Route: Oral active; positive (p<0.05) | Test System: AMES SALMONELLA TYPHIMURIUM, Strain/Indicator: TA98, Metabolic Activation: RAT LIVER S-9, PHENOBARBITAL AND BETA-NAPHTHOFLAVONE, Method: PREINCUBATION active; positive | Test System: AMES SALMONELLA TYPHIMURIUM, Strain/Indicator: TA98, Metabolic Activation: RAT, LIVER, S-9, (5%, 10% OR 20%) AROCLOR 1254, Method: STANDARD PLATE active; positive | [2] active; positive | Test System: AMES SALMONELLA TYPHIMURIUM, Strain/Indicator: TA98, Metabolic Activation: RAT, LIVER, S-9, KC500 OR PHENOBARBITAL, Method: LIQUID SUSPENSION active; positive | Test System: AMES SALMONELLA TYPHIMURIUM, Strain/Indicator: TA98, Metabolic Activation: RAT, LIVER, S-9, PCB, Method: PREINCUBATION active; positive | Test System: AMES SALMONELLA TYPHIMURIUM, Strain/Indicator: TA98, Metabolic Activation: RAT, LIVER, S-9, Method: PREINCUBATION active; positive | Test System: AMES SALMONELLA TYPHIMURIUM, Strain/Indicator: TA100, Metabolic Activation: RAT LIVER S-9, PHENOBARBITAL AND 5,6-BENZOFLAVONE, Method: PREINCUBATION active; positive | Test System: AMES SALMONELLA TYPHIMURIUM, Strain/Indicator: TA100, Metabolic Activation: RAT LIVER S-9, PHENOBARBITAL AND BETA-NAPHTHOFLAVONE, Method: PREINCUBATION active; positive | Test System: AMES SALMONELLA TYPHIMURIUM, Strain/Indicator: TA100, Metabolic Activation: RAT, LIVER, S-9 (5%, 10% OR 20%) AROCLOR 1254, Method: STANDARD PLATE active; positive | Test System: AMES SALMONELLA TYPHIMURIUM, Strain/Indicator: TA100, Metabolic Activation: RAT, LIVER, S-9, (5%, 10% OR 20%,) AROCLOR 1254, Method: STANDARD PLATE active; positive | [4] active; positive | Test System: AMES SALMONELLA TYPHIMURIUM, Strain/Indicator: TA100, Metabolic Activation: RAT, LIVER, S-9, KC500 OR PHENOBARBITAL, Method: LIQUID SUSPENSION active; positive | Test System: AMES SALMONELLA TYPHIMURIUM, Strain/Indicator: TA100, Metabolic Activation: RAT, LIVER, S-9, PCB, Method: STANDARD PLATE active; positive | Test System: AMES SALMONELLA TYPHIMURIUM, Strain/Indicator: TA100, Metabolic Activation: RAT, LIVER, S-9, PHENOBARBITAL AND 5,6-BENZOFLAVONE, Method: PREINCUBATION active; positive | Test System: AMES SALMONELLA TYPHIMURIUM, Strain/Indicator: TA100, Metabolic Activation: RAT, LIVER, S-9, PHENOBARBITAL AND 5,6-NAPHTHOFLAVONE, Method: PREINCUBATION active; positive | Test System: AMES SALMONELLA TYPHIMURIUM, Strain/Indicator: TA100, Metabolic Activation: RAT, LIVER, S-9, Method: PREINCUBATION active; positive | [5] active; positive | Test System: E.COLI, Strain/Indicator: WP2UVRA, Metabolic Activation: RAT LIVER S-9, PHENOBARBITAL AND BETA-NAPHTHOFLAVONE, Method: PREINCUBATION active; positive | Test System: UDS RODENT HEPATOCYTES, Strain/Indicator: THY INCORP (NON-S-PHASE), Metabolic Activation: NONE, Method: AUTORADIOGRAPHY active; positive

N=C(N)c1ccc(-c2cc3ccc(C(=N)N)cc3[nH]2)cc1
inactive: [8] inactive; negative | Test System: AMES SALMONELLA TYPHIMURIUM, Strain/Indicator: TA98, Metabolic Activation: RAT, LIVER, S-9, PHENOBARBITAL, Method: STANDARD PLATE inactive; negative | [9] inactive; negative | Test System: AMES SALMONELLA TYPHIMURIUM, Strain/Indicator: TA100, Metabolic Activation: RAT, LIVER, S-9, PHENOBARBITAL, Method: STANDARD PLATE inactive; negative | Test System: E. COLI, Strain/Indicator: WP2, Metabolic Activation: NONE, Method: PREINCUBATION inactive; negative

Nc1ccc(O)c(C(=O)O)c1
inactive: [1] inactive; negative | Test System: AMES SALMONELLA TYPHIMURIUM, Strain/Indicator: TA98, Metabolic Activation: S-9, Method: PREINCUBATION inactive; negative | [3] inactive; negative | [5] inactive; negative | [6] inactive; negative | Test System: AMES SALMONELLA TYPHIMURIUM, Strain/Indicator: TA1535, Metabolic Activation: S-9, Method: PREINCUBATION inactive; negative | [7] inactive; negative | Test System: AMES SALMONELLA TYPHIMURIUM, Strain/Indicator: TA1537, Metabolic Activation: S-9, Method: PREINCUBATION inactive; negative | Test System: E. COLI, Strain/Indicator: WP2 UVRA, Metabolic Activation: NONE, Method: PREINCUBATION inactive; negative | Test System: E. COLI, Strain/Indicator: WP2 UVRA, Metabolic Activation: S-9, Method: PREINCUBATION inactive; negative

CCCN=NC(C)(C)OO
active: Test System: AMES SALMONELLA TYPHIMURIUM, Strain/Indicator: TA1535, Metabolic Activation: NONE active; positive | Test System: E. COLI, Strain/Indicator: WP2 (HCR-), Metabolic Activation: NONE active; positive

Cc1nn(C)c(N)c1C(=O)c1ccccc1F
active: Test System: AMES SALMONELLA TYPHIMURIUM, Strain/Indicator: TA98, Metabolic Activation: RAT, LIVER, S-9, AROCLOR 1254, Method: PREINCUBATION active; positive | [2] active; positive | Test System: AMES SALMONELLA TYPHIMURIUM, Strain/Indicator: TA98, Metabolic Activation: RAT, LIVER, S-9, PHENOBARBITAL, Method: PREINCUBATION active; positive | [4] active; positive | Test System: AMES SALMONELLA TYPHIMURIUM, Strain/Indicator: TA100, Metabolic Activation: RAT, LIVER, S-9, AROCLOR 1254, Method: STANDARD PLATE active; positive | Test System: AMES SALMONELLA TYPHIMURIUM, Strain/Indicator: TA100, Metabolic Activation: RAT, LIVER, S-9, PHENOBARBITAL, Method: PREINCUBATION active; positive

ONc1cccc(-c2ccccc2)c1
inactive: [8] inactive; negative | [9] inactive; negative
